The record followed here is paper PMC10514301 (Signal Transduction and Targeted Therapy, 2023).

The test system of data set [1] is HCoV-OC43. The data set is described as follows: Median effect plots of individual drugs against HCoV-OC43 in RD cells. Format: cell-based.
Data set [2] relates to HCoV-OC43. The data set can be described thus: Antiviral activity against HCoV-OC43 in RD cells (qRT-PCR). Format: cell-based. Particulars: Betacoronavirus 1, OC43, RD, 48 h, read-out: EC50 mean ± sd, RD, OC43. Background: In qPCR the cycle at which signal appears reflects the starting amount.
Data set [3] concerns HCoV-OC43. The data set is described as follows: Antiviral activity against HCoV-OC43 in Huh-7 cells (qRT-PCR). Type of data set: cell-based. Conditions: Betacoronavirus 1, OC43, Huh-7, 48 h, read-out: EC50 mean ± sd, Huh-7, OC43.
Data set [4] relates to HCoV-229E. The data set is described as follows: Antiviral activity against HCoV-229E in MRC5 cells (qRT-PCR). Type of data set: cell-based. Conditions: Human coronavirus 229E, MRC5, 48 h, read-out: EC50 mean ± sd, MRC5, 229E.
Data set [5] has as its system HCoV-229E. The data set can be described thus: Antiviral activity against HCoV-229E in Huh-7 cells (qRT-PCR). Format: cell-based. Particulars: Human coronavirus 229E, Huh-7, 48 h, read-out: EC50 mean ± sd, Huh-7, 229E.
Data set [6] in a line: Plasma pharmacokinetics after oral administration in C57BL/6J mice. Particulars: for decrease of plasma Cmax in the VV116-nirmatrelvir combination compared with the individual study / decrease of plasma exposure in the VV116-nirmatrelvir combination compared with the individual study: oral VV116 + nirmatrelvir + ritonavir 50 + 100 + 50 mg/kg. As to the method: The PK studies were conducted at Suzhou HQ Bioscience Co., Ltd. Eighteen C57BL/6J mice (N = 6 for each group, male) were randomly divided into three groups, and fasted for 12 h before dosing. […] The vehicle for oral administration of the test compounds was 5% DMSO + 5% Solutol HS-15 + 5% PEG400 + 85% Saline. Blood sample (70 μL) was collected from the orbit of the first three mice in each group at 0.25, 1.0, 4.0, and 8.0 and the last three mice in each group at 0.5, 2.0, 6.0, and 24 h post-dosing. The sample was taken into EDTA-K2 tubes, and centrifuged at 11,000 rpm for 5 min. The plasma was separated and frozen in a refrigerator at −70 °C for testing. The operation was conducted under an ice water bath. The concentration of analyte in plasma was determined by LC–MS/MS.

A further data set is described as follows: Cytotoxicity in RD cells. Type of data set: cell-based. Conditions: human.
Data set [7] concerns HCoV-OC43. The data set is described as follows: In vivo efficacy against HCoV-OC43 in suckling mice. On the set-up: species or system suckling Balb/c mice.
[8] abbreviates: Betacoronavirus 1, read-out: IC50 (drug concentration that inhibit 50% viral replication), HCoV-OC43, RD cells, MOI 0.1, 48 hpi, median effect plot.
Where [9] appears, read: male, C57BL/6J, mouse, plasma, po, 50 mg/kg.
Setting [10] is: Betacoronavirus 1, OC43, RD, read-out: IC50 (drug concentration that inhibit 50% viral replication).

Where “and” joins values, the source holds several entries; their conditions need not be identical. Equal values may be shown once. Read-outs that look alike come from different tables or passages of the source.

Consider `CC(C)(C)NC(=O)N[C@H](C(=O)N1C[C@H]2[C@@H]([C@H]1C(=O)NC(CC1CCC1)C(=O)C(N)=O)C2(C)C)C(C)(C)C` (some centres unmarked) [Boceprevir, boceprevir], for which the IC50 in the data set on HCoV-OC43 [1] (setting [8]) was determined as 26900 nM. Also, the “slope steepness (m) of the dose-response curve” value (from here on “slope steepness (m)”) with HCoV-OC43 [1] (OC43) worked out at 11.2.

Turning to `COc1ccc2c(O[C@@H]3C[C@H]4C(=O)N[C@]5(C(=O)NS(=O)(=O)C6CC6)C[C@H]5/C=C\CCCCN(C)C(=O)[C@@H]4C3)cc(-c3nc(C(C)C)cs3)nc2c1C` [Simeprevir, simeprevir], in the data set on HCoV-OC43 [1] (setting [8]), the IC50 was found to be 2220 nM. For the same compound, the “slope steepness (m)” value in the data set on HCoV-OC43 [1] (OC43) was found to be 2.18.

Take `[2H]c1cc([C@]2(C#N)O[C@H](CO)[C@@H](O)[C@H]2O)n2ncnc(N)c12` [X1]: the EC50 in the data set on HCoV-OC43 [2] stood at 800 ± 420 nM; with HCoV-OC43 [3], 1100 ± 61 nM; in the data set on HCoV-229E [4], 60 ± 160 nM; with HCoV-229E [5], 570 ± 70 nM. Further, in data set [6] (setting [9]), the AUC(0-t) worked out at 19500 ng·h/mL. Besides, the Cmax in data set [6] (setting [9]) was 10700 ng/mL and 36.6 µM. Further, in data set [6], the “decrease of plasma Cmax in the VV116-nirmatrelvir combination compared with the individual study” value was found to be 20.3%. Besides, the “decrease of plasma exposure in the VV116-nirmatrelvir combination compared with the individual study” value in data set [6] worked out at 13.5%.

Consider `N#C[C@@]1(c2ccc3c(N)ncnn23)O[C@H](CO)[C@@H](O)[C@H]1O` [GS-441524], for which the EC50 turned out to be 460 ± 79 nM in the data set with HCoV-OC43 [2], 1400 ± 55 nM in the data set with HCoV-OC43 [3], 30 ± 21 nM with HCoV-229E [4] and 560 ± 82 nM in the data set with HCoV-229E [5].

`NC(=O)c1ncn([C@@H]2O[C@H](CO)[C@@H](O)[C@H]2O)n1` [Ribavirin, ribavirin]: in the data set on HCoV-OC43 [1] (setting [8]), the IC50 came out at 49500 nM. Moreover, the “slope steepness (m)” value in the data set with HCoV-OC43 [1] (OC43) was 2.19.

For the compound `O=c1nc(NO)ccn1[C@@H]1O[C@H](CO)[C@@H](O)[C@H]1O` [NHC, β-d-N4-hydroxycytidine], the “slope steepness (m)” value in the data set with HCoV-OC43 [1] (HCoV-OC43, RD cells, MOI 0.1, 48 hpi, median effect plot) was 2.80. Also, the IC50 in the data set with HCoV-OC43 [1] (read-out: IC50 (drug concentration that inhibit 50% viral replication), HCoV-OC43, RD cells, MOI 0.1, 48 hpi, median effect plot) was 5680 nM.

As for `Cc1cnc(C(=O)N[C@H]2CCCCC/C=C\[C@@H]3C[C@@]3(C(=O)NS(=O)(=O)C3CC3)NC(=O)[C@@H]3C[C@@H](Oc4nc5ccccc5c5ccccc45)CN3C2=O)cn1` [Paritaprevir, paritaprevir], the IC50 in the data set on HCoV-OC43 [1] (setting [8]) is 2500 nM. In addition, in the data set on HCoV-OC43 [1] (OC43), the “slope steepness (m)” value amounted to 1.55.

With `CCC(CC)COC(=O)[C@H](C)N[P@](=O)(OC[C@H]1O[C@@](C#N)(c2ccc3c(N)ncnn23)[C@H](O)[C@@H]1O)Oc1ccccc1` [RDV, remdesivir], half-maximal cytotoxicity in the data set “Cytotoxicity in RD cells” (CC50) was put at 1570 nM. Further, the results for the EC50 with HCoV-OC43 [2] and in the data set on HCoV-229E [5] were 21 ± 35 nM and 41 nM, respectively. Besides, in the data set with HCoV-OC43 [1] (setting [10]), the IC50 came to 20.2 nM. The “slope steepness (m)” value with HCoV-OC43 [1] (OC43) is on record as 2.40.

In the case of `CC(C)(C)[C@H](NC(=O)C(F)(F)F)C(=O)N1C[C@H]2[C@@H]([C@H]1C(=O)N[C@H](C#N)C[C@@H]1CCNC1=O)C2(C)C` [Nirmatrelvir, nirmatrelvir], the “viral loads (titers, immunoplaque assay) in organs” value with HCoV-OC43 [7] (VV116 50 mpk, nirmatrelvir 10 and 20 mpk with ritonavir, the two combinations) is reported as “less than the limit of detection (LOD)”. The “inflammation (cytokine gene expression) in the brain” value with HCoV-OC43 [7] (VV116 50 mpk, nirmatrelvir 10 mpk, 25 mpk) was “dramatically reduced inflammation”. Also, in the data set with HCoV-OC43 [7] (VV116 50 mpk, nirmatrelvir 10 mpk, 25 mpk, Combo 1, Combo 2), the “lung histopathology (hematoxylin and eosin)” value is “significantly improved”. For the same compound, the “inflammation suppression (cytokine gene expression), especially IL-6 in the lungs” value in the data set on HCoV-OC43 [7] (individual VV116 and nirmatrelvir treatments versus Combo 1 and Combo 2) was “limited inflammation suppression”. Moreover, the “viral copies in the brain” value with HCoV-OC43 [7] (oral once a day, VV116 25 and 50 mpk, nirmatrelvir 25 mpk with ritonavir 50 mpk) is given as “almost completely cleared”. In data set [6], the “decrease of plasma Cmax in the VV116-nirmatrelvir combination compared with the individual study” value is reported as 12.5% and the “decrease of plasma exposure in the VV116-nirmatrelvir combination compared with the individual study” value is given as 19.8%. For the same compound, in the data set with HCoV-OC43 [1] (setting [10]), the IC50 came to 121 nM. In the data set on HCoV-OC43 [1] (OC43), the “slope steepness (m)” value is reported as 4.49.

On to `Cc1cccc(C)c1OCC(=O)N[C@@H](Cc1ccccc1)[C@@H](O)C[C@H](Cc1ccccc1)NC(=O)[C@H](C(C)C)N1CCCNC1=O` [Lopinavir, lopinavir], for which the IC50 in the data set with HCoV-OC43 [1] (setting [8]) was found to be 1440 nM. Besides, in the data set on HCoV-OC43 [1] (OC43), the “slope steepness (m)” value is listed as 1.94.

In general, EC50 refers to the midpoint of the concentration-response curve. As usually defined, the AUC(0-t) is the area under the concentration-time curve up to a stated or last time point. A lower AUC(0-t) goes with less exposure. As a reminder, the Cmax is the maximum level reached in the sampled fluid or tissue. Usually CC50 stands for the concentration giving 50% cytotoxicity. The low end stands for harm at low concentration, the high end for better tolerance by the cells.
